{"source": "patent US8716268B2", "about": "“Nitrate esters of corticoid compounds useful as diuretics” (priority 2010, dated 2014)", "key": {"[1]": {"assay": "Diuretic effect of Dexamethasone in intact Wistar rats", "assay_type": "in vivo", "conditions": "24-hour treatment, Dex 1 mg/kg (RU486 100 mg/kg in combination), mean ± SD", "source_text": "(§1) To determine the effect of glucocorticoids on diuretic effect and NPR-A expression in renal medulla, 15 intact Wistar rats were randomized to receive Dexamethasone (Dex), vehicle and glucocorticoid receptor (GR) antagonist RU 486."}, "NPR-A [2]": {"system": "NPR-A", "assay": "NPR-A expression in renal medulla of intact rats (western blotting)", "assay_type": "in vivo", "conditions": "intact Wistar rats, 24-hour treatment, Dex 1 mg/kg (RU486 100 mg/kg in combination), mean ± SD", "source_text": "as §1"}, "NPR-A [3]": {"system": "NPR-A", "assay": "NPR-A expression in IMCD cells (immunofluorescence)", "assay_type": "cell-based, Wistar rats", "parameters": "key to NPR-A expression (24 hours) / NPR-A expression (48 hours): + = low; ++ = moderate; +++ = high", "conditions": "for NPR-A expression (24 hours) / NPR-A expression (48 hours): rat IMCD cells", "source_text": "IMCD cells from Wistar rats were isolated and cultured using the method previously described by Ye Q et al.: Endothelin inhibits NPR-A and stimulates eNOS gene expression in rat IMCD cells. Hypertension 41, 675-681 (2003). […] […] The Density of membrane NPR-A in IMCD cells were visualized by immunofluorescence."}, "NPR-A [4]": {"system": "NPR-A", "assay": "NPR-A expression in renal medulla of heart failure rats (western blotting)", "assay_type": "in vivo, Wistar rats", "experimental": "(§2) To determine the effects of corticosteroids on systemic volume in HF, 15 Wistar rats with HF were randomized to receive NCX-1015 (n=5), or prednisolone (n=5), or vehicle (n=5). HF model was accomplished by left anterior descending artery ligation, and then the survived rats were raised for 12 weeks to have decompensated HF (i.e. HF with fluid accumulation). Parameters on urinary volume and urinary sodium in 12 hours were collected."}, "V2 receptor": {"system": "V2 receptor", "assay": "V2 receptor density in the kidney of rats with decompensated heart failure (western blotting)", "assay_type": "in vivo, Wistar rats", "conditions": "1 mg/kg, 24-hour treatment, mean ± SD", "source_text": "(§3) To determine the effects of corticosteroids on vasopressin axis in HF, 15 Wistar rats with HF were randomized to receive NCX-1015 (n=5), or prednisolone (n=5), or vehicle (n=5)."}, "vasopressin": {"system": "vasopressin", "assay": "Plasma vasopressin in rats with decompensated heart failure", "assay_type": "in vivo, Wistar rats", "conditions": "1 mg/kg, 24-hour treatment, mean ± SD", "source_text": "as §3"}, "AT1 receptor": {"system": "AT1 receptor", "assay": "AT1 receptor density in the kidney of rats with decompensated heart failure (western blotting)", "assay_type": "in vivo, Wistar rats", "conditions": "1 mg/kg, 24-hour treatment, mean ± SD", "source_text": "(§4) To determine the effects of corticosteroids on RAAS in HF, 15 Wistar rats with HF were randomized to receive NCX-1015 (n=5), or prednisolone (n=5), or vehicle (n=5)."}, "angiotensin II": {"system": "angiotensin II", "assay": "Plasma angiotensin II in rats with decompensated heart failure", "assay_type": "in vivo, Wistar rats", "conditions": "1 mg/kg, 24-hour treatment, mean ± SD", "source_text": "as §4"}, "aldosterone": {"system": "aldosterone", "assay": "Plasma aldosterone in rats with decompensated heart failure", "assay_type": "in vivo, Wistar rats", "conditions": "1 mg/kg, 24-hour treatment, mean ± SD", "source_text": "as §4"}, "[5]": {"assay": "Diuretic effect in rats with decompensated heart failure", "assay_type": "in vivo, Wistar rats", "conditions": "1 mg/kg, 12 hours, mean ± SD", "experimental": "as §2"}, "[6]": {"conditions": "10^−6 mol/L, membrane NPR-A density (Table 3)"}, "[7]": {"conditions": "10^−6 mol/L, membrane NPR-A density"}, "[8]": {"conditions": "10^−7 mol/L, membrane NPR-A density"}, "[9]": {"conditions": "10^−7 mol/L, membrane NPR-A density (Table 3)"}}, "note": "Marks after values point to notes of the source that are not given here.", "data": [{"smiles": "C[C@@H]1C[C@H]2[C@@H]3CCC4=CC(=O)C=C[C@]4(C)[C@@]3(F)[C@@H](O)C[C@]2(C)[C@@]1(O)C(=O)CO", "note": "[Dex, Dexamethasone]", "values": [{"measurement": "Urinary sodium", "setting": "[1]", "value": "3.50 ± 0.39", "unit": "mmol/24 h"}, {"measurement": "Urinary volume", "setting": "[1]", "value": "16.4 ± 2.4", "unit": "ml/24 h"}, {"measurement": "NPR-A expression", "setting": "NPR-A [2]", "value": "132.2 ± 9.7* 100% of vehicle"}]}, {"smiles": "C[C@]12CCC(=O)C=C1CC[C@@H]1[C@@H]2[C@@H](O)C[C@@]2(C)[C@H]1CC[C@]2(O)C(=O)CO", "note": "[hydrocortisone]", "values": [{"measurement": "NPR-A expression (24 hours)", "setting": "NPR-A [3]; [6]", "value": "+"}, {"measurement": "NPR-A expression (48 hours)", "setting": "NPR-A [3]; [6]", "value": "++"}]}, {"smiles": "C[C@]12C=CC(=O)C=C1CC[C@@H]1[C@@H]2[C@@H](O)C[C@@]2(C)[C@H]1CC[C@]2(O)C(=O)CO", "note": "[prednisolone]", "values": [{"measurement": "NPR-A expression in the renal medulla, higher than vehicle-treated rats", "setting": "NPR-A [4]", "value": 26.5, "unit": "%"}, {"measurement": "V2 receptor density in the kidney", "setting": "V2 receptor", "value": "79.80 ± 9.44^$ % of vehicle"}, {"measurement": "NPR-A expression (24 hours)", "setting": "NPR-A [3]; [7]", "value": "+"}, {"measurement": "NPR-A expression (48 hours)", "setting": "NPR-A [3]; [7]", "value": "++"}, {"measurement": "Plasma vasopressin", "setting": "vasopressin", "value": "45.72 ± 8.35^$ pg/ml"}, {"measurement": "AT1 receptor density in the kidney", "setting": "AT1 receptor", "value": "67.06 ± 12.96 % of vehicle"}, {"measurement": "Plasma angiotensin II", "setting": "angiotensin II", "value": "665.86 ± 113.90^$ pg/ml"}, {"measurement": "Plasma aldosterone", "setting": "aldosterone", "value": "1.39 ± 0.26", "unit": "ng/mL"}, {"measurement": "Urinary sodium", "setting": "[5]", "value": "1.08 ± 0.1", "unit": "mmol/12 h"}, {"measurement": "Urinary volume", "setting": "[5]", "value": "6.1 ± 0.7", "unit": "ml/12 h"}]}, {"smiles": "C[C@]12C=CC(=O)C=C1CC[C@@H]1[C@@H]2[C@@H](O)C[C@@]2(C)[C@H]1CC[C@]2(O)C(=O)COC(=O)c1ccc(CO[N+](=O)[O-])cc1", "note": "[NCX-1015, prednisolone 21-[(4′-nitro-oxymethyl)benzoate]]", "values": [{"measurement": "NPR-A expression in the renal medulla, higher than vehicle-treated rats", "setting": "NPR-A [4]", "value": 42.8, "unit": "%"}, {"measurement": "V2 receptor density in the kidney", "setting": "V2 receptor", "value": "54.06 ± 16.15 % of vehicle"}, {"measurement": "Dose needed to attain the same effect of prednisolone on renal NPR-A", "setting": "NPR-A [3]; in vitro, fraction of the prednisolone dose", "value": "about 1/10"}, {"measurement": "Time needed to attain the same effect of prednisolone on renal NPR-A", "setting": "NPR-A [3]; in vitro, fraction of the prednisolone time", "value": "about half"}, {"measurement": "NPR-A expression (24 hours)", "setting": "NPR-A [3]; [8]", "value": "++"}, {"measurement": "NPR-A expression (48 hours)", "setting": "NPR-A [3]; [8]", "value": "+++"}, {"measurement": "Plasma vasopressin", "setting": "vasopressin", "value": "32.14 ± 5.47", "unit": "pg/mL"}, {"measurement": "AT1 receptor density in the kidney", "setting": "AT1 receptor", "value": "43.14 ± 7.07 % of vehicle"}, {"measurement": "Plasma angiotensin II", "setting": "angiotensin II", "value": "412.20 ± 64.99*^& pg/ml"}, {"measurement": "Plasma aldosterone", "setting": "aldosterone", "value": "0.99 ± 0.09", "unit": "ng/mL"}, {"measurement": "Urinary sodium", "setting": "[5]", "value": "1.43 ± 0.15", "unit": "mmol/12 h"}, {"measurement": "Urinary volume", "setting": "[5]", "value": "8.8 ± 1.5", "unit": "ml/12 h"}]}, {"smiles": "C[C@]12CCC(=O)C=C1CC[C@@H]1[C@@H]2[C@@H](O)C[C@@]2(C)[C@H]1CC[C@]2(O)C(=O)COC(=O)c1ccc(CO[N+](=O)[O-])cc1", "note": "[NCX-1022]", "values": [{"measurement": "NPR-A expression (24 hours)", "setting": "NPR-A [3]; [9]", "value": "++"}, {"measurement": "NPR-A expression (48 hours)", "setting": "NPR-A [3]; [9]", "value": "+++"}]}]}
